Our source for the TGI and GI50 values is PubChem BioAssay (NCI).

Among the test systems are DMS 273 small cell lung; HL-60(TB) leukemia; HT29 colon; KM12 colon; KM20L2 colon; MDA-MB-435; PC-3 prostate; RPMI-8226 leukemia; SK-MEL-5 melanoma; U251 CNS.
Holding throughout (assay): NCI-60 cell line screen, 48 h

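Interpolation was linear, between the two tested concentrations surrounding the appropriate level; five concentrations were tested over 48 hours in 96-well plates. Abbreviation: GI50, concentration required for 50% inhibition of growth. TGI: concentration producing complete growth inhibition.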 A value given as a limit tells only on which side of the number the result lay.

`O=C(/C=C/c1ccc(OCC(=O)N2CCN(c3ccccc3)CC2)cc1)c1ccc(Cl)cc1`: the TGI with DMS 273 small cell lung, in the assay with HL-60(TB) leukemia, in the assay on HT29 colon, in the assay on KM12 colon, with KM20L2 colon and with MDA-MB-435 was over 100 µM each time. Further, the TGI is over 100 µM with PC-3 prostate, over 100 µM in the assay on RPMI-8226 leukemia, over 100 µM in the assay on SK-MEL-5 melanoma and 46 µM in the assay with U251 CNS.
As to `CC(CN(CP(=O)([O-])[O-])CP(=O)([O-])[O-])N(CP(=O)([O-])[O-])CP(=O)([O-])[O-].N.N.[Pt+2]` (configuration not stated), the GI50 with DMS 273 small cell lung, in the assay on HL-60(TB) leukemia, in the assay with HT29 colon, in the assay with KM12 colon, with KM20L2 colon and in the assay with RPMI-8226 leukemia was over 100 µM throughout. Also, the GI50 in the assay with SK-MEL-5 melanoma and with U251 CNS was over 100 µM in each case. The TGI in the assay on DMS 273 small cell lung, with HL-60(TB) leukemia, in the assay on HT29 colon, in the assay with KM12 colon, with KM20L2 colon and in the assay on RPMI-8226 leukemia was over 100 µM each time. Moreover, the TGI in the assay on SK-MEL-5 melanoma and with U251 CNS was over 100 µM each time.
For `Clc1ccc(Cl)c2[s+]snc12`, the TGI with DMS 273 small cell lung was over 62.7 µM; in the assay with HL-60(TB) leukemia, over 100 µM; in the assay on HT29 colon, 68.3 µM; in the assay on KM12 colon it was over 100 µM; in the assay with KM20L2 colon, over 100 µM; in the assay with RPMI-8226 leukemia it was over 77.6 µM. In addition, the TGI in the assay on SK-MEL-5 melanoma and with U251 CNS was over 100 µM each time.
`C=C1[C@@H](C)[C@H]2[C@H](Cc3ccccc3)NC(=O)[C@]23OC(=O)/C=C/[C@H](O)CCC[C@@H](C)C/C=C/[C@H]3[C@@H]1O`: the TGI with DMS 273 small cell lung is over 97 µM; in the assay on HL-60(TB) leukemia, 90 µM; in the assay with HT29 colon, over 100 µM; with KM12 colon, over 100 µM; in the assay on KM20L2 colon, over 100 µM; with PC-3 prostate it was over 100 µM. The TGI amounted to 39.6 µM in the assay with RPMI-8226 leukemia, 63.1 µM in the assay on SK-MEL-5 melanoma and 57.8 µM in the assay with U251 CNS.
Take `Clc1ccc(-n2nnc(C3=NCCN3)c2-c2ccccc2)cc1`: the TGI in the assay on DMS 273 small cell lung, in the assay on HL-60(TB) leukemia, in the assay with HT29 colon, in the assay with KM12 colon, in the assay with KM20L2 colon and in the assay on RPMI-8226 leukemia was over 100 µM throughout. Also, the TGI in the assay on SK-MEL-5 melanoma and with U251 CNS was over 100 µM throughout.
With `O=C(O)CNc1c2ccccc2nc2ccccc12`, the TGI with DMS 273 small cell lung, in the assay on HL-60(TB) leukemia, with HT29 colon, with KM12 colon, with KM20L2 colon and in the assay with RPMI-8226 leukemia was over 100 µM in each case. Further, the TGI in the assay on SK-MEL-5 melanoma and in the assay with U251 CNS was over 100 µM throughout.
For `CCCCCCCCCC(=O)CC(=O)c1ccc(O)cc1O`, the TGI was 74.1 µM in the assay on DMS 273 small cell lung; 53.9 µM in the assay on HL-60(TB) leukemia; over 100 µM with HT29 colon; 61 µM in the assay with KM12 colon; over 100 µM with KM20L2 colon; 59.6 µM with RPMI-8226 leukemia. The TGI was determined as 31.5 µM in the assay on SK-MEL-5 melanoma and 64.9 µM with U251 CNS.
